Where “and” joins values, the source holds several entries; their conditions need not be identical. Identical values can stand only once. Inconclusive results and toxic doses are left out. How the source made its calls: active means survival T/C of 150% or more; inactive means T/C below 125% in these data.
System: BDF1 mice, P388 leukemia ip, median survival T/C
Assay: NCI In Vivo Anticancer Drug Screen. Data for tumor model P388 Leukemia (intraperitoneal) in B6D2F1 (BDF1) mice
Settings: endpoint: median survival time, higher = longer survival
Method in brief: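 Reported as T/C, where T is the survival measurement in dosed animals and C the same measurement in vehicle controls.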

[1] = dose: 6.25 mg/kg/injection, schedule: Q01DX009 (ip), vehicle: Klucel (hydroxypropylcellulose) (HPC)
[2] = dose: 50.0 mg/kg/injection, schedule: Q01DX009 (ip), vehicle: saline
[3] = dose: 100.0 mg/kg/injection, schedule: Q01DX009 (ip), vehicle: saline
[4] = dose: 400.0 mg/kg/injection, schedule: Q01DX009 (ip), vehicle: saline with Tween-80

Measured: T/C

CCC(c1ccc(OC)cc1)C(NCC(=O)NNC(=O)CNC(c1ccc(OC)cc1)C(CC)c1ccc(OC)cc1)c1ccc(OC)cc1 (configuration not stated)
inactive: dose: 12.5 mg/kg/injection, schedule: Q04DX002 (ip), vehicle: saline with Tween-80 110 % of control | dose: 25.0 mg/kg/injection, schedule: Q04DX002 (ip), vehicle: saline with Tween-80 88 % of control | dose: 50.0 mg/kg/injection, schedule: Q04DX002 (ip), vehicle: saline with Tween-80 94 % of control

O=[N+]([O-])C1(Cl)CCCCC1
inactive: [1] 112 % of control | dose: 12.5 mg/kg/injection, schedule: Q01DX009 (ip), vehicle: Klucel (hydroxypropylcellulose) (HPC) 108 % of control | dose: 25.0 mg/kg/injection, schedule: Q01DX009 (ip), vehicle: Klucel (hydroxypropylcellulose) (HPC) 102 % of control and 105 % of control

CC1(C)CCC(=O)O1
inactive: dose: 25.0 mg/kg/injection, schedule: Q01DX009 (ip), vehicle: water 104 % of control | dose: 50.0 mg/kg/injection, schedule: Q01DX009 (ip), vehicle: water 104 % of control | dose: 100.0 mg/kg/injection, schedule: Q01DX009 (ip), vehicle: water 91 % of control | dose: 200.0 mg/kg/injection, schedule: Q01DX009 (ip), vehicle: water 103 % of control | dose: 400.0 mg/kg/injection, schedule: Q01DX009 (ip), vehicle: water 91 % of control

O=C(NCc1cnccn1)Nc1ccccc1
inactive: dose: 25.0 mg/kg/injection, schedule: Q04DX003 (ip), vehicle: saline 104 % of control | dose: 50.0 mg/kg/injection, schedule: Q04DX003 (ip), vehicle: saline 103 % of control | dose: 100.0 mg/kg/injection, schedule: Q04DX003 (ip), vehicle: saline 87 % of control | dose: 200.0 mg/kg/injection, schedule: Q04DX003 (ip), vehicle: saline 100 % of control | dose: 400.0 mg/kg/injection, schedule: Q04DX003 (ip), vehicle: saline 100 % of control

Cc1cc(C)c(C#N)c(=O)[nH]1
inactive: [2] 99 % of control | [3] 94 % of control

CC(C)(C(Cl)Cl)S(=O)(=O)O (tested in a mixture with another compound)
inactive: dose: 75.0 mg/kg/injection, schedule: Q01DX009 (ip), vehicle: saline with Tween-80 100 % of control | dose: 75.0 mg/kg/injection, schedule: Q04DX003 (ip), vehicle: saline with Tween-80 110 % of control | dose: 150.0 mg/kg/injection, schedule: Q01DX009 (ip), vehicle: saline with Tween-80 100 % of control | dose: 150.0 mg/kg/injection, schedule: Q04DX003 (ip), vehicle: saline with Tween-80 100 % of control | dose: 300.0 mg/kg/injection, schedule: Q01DX009 (ip), vehicle: saline with Tween-80 109 % of control | dose: 300.0 mg/kg/injection, schedule: Q04DX003 (ip), vehicle: saline with Tween-80 110 % of control

CNC(=S)N/N=C/c1ccc([N+](=O)[O-])s1
inactive: [4] 94 % of control

CN1CCC(CN2c3ccccc3Sc3ccccc32)CC1
inactive: dose: 1.56 mg/kg/injection, schedule: Q01DX009 (ip), vehicle: Klucel (hydroxypropylcellulose) (HPC) 105 % of control | dose: 3.12 mg/kg/injection, schedule: Q01DX009 (ip), vehicle: Klucel (hydroxypropylcellulose) (HPC) 86 % of control and 105 % of control | [1] 95 % of control | dose: 8.75 mg/kg/injection, schedule: Q04DX003 (ip), vehicle: Klucel (hydroxypropylcellulose) (HPC) 95 % of control | dose: 17.5 mg/kg/injection, schedule: Q04DX003 (ip), vehicle: Klucel (hydroxypropylcellulose) (HPC) 95 % of control | dose: 35.0 mg/kg/injection, schedule: Q04DX003 (ip), vehicle: Klucel (hydroxypropylcellulose) (HPC) 109 % of control | dose: 50.0 mg/kg/injection, schedule: Q04DX003 (ip), vehicle: Klucel (hydroxypropylcellulose) (HPC) 110 % of control | dose: 80.0 mg/kg/injection, schedule: Q04DX003 (ip), vehicle: Klucel (hydroxypropylcellulose) (HPC) 120 % of control | dose: 100.0 mg/kg/injection, schedule: Q04DX003 (ip), vehicle: saline with Tween-80 118 % of control | dose: 200.0 mg/kg/injection, schedule: Q04DX003 (ip), vehicle: saline with Tween-80 86 % of control

CC1(C)C2=CCCC3(OCCO3)C2(C)CCC1O (configuration not stated)
inactive: dose: 100.0 mg/kg/injection, schedule: Q01DX009 (ip), vehicle: saline with Tween-80 100 % of control | dose: 200.0 mg/kg/injection, schedule: Q01DX009 (ip), vehicle: saline with Tween-80 100 % of control | [4] 90 % of control

O=C(O)CCNCc1ccccc1
inactive: dose: 25.0 mg/kg/injection, schedule: Q01DX009 (ip), vehicle: saline 93 % of control | [2] 108 % of control | [3] 117 % of control | dose: 200.0 mg/kg/injection, schedule: Q01DX009 (ip), vehicle: saline 88 % of control

Reference: PubChem BioAssay AID328 (DTP/NCI, 2004)
